Reference: the NIST ThermoML archive (doi:10.1021/je100100n)

Experiment: xn = mol fraction of the nth substance listed
Conditions: 101 kPa, Liquid

CC(C)CO [2-methyl-1-propanol] + CCOC(=O)CC(=O)OCC
x2 = 0
Conditions | mass density [kg/m3]
288.15 K | 805.6
298.15 K | 797.916
313.15 K | 786.069
328.15 K | 773.692

CCCCO [butan-1-ol] + CCOC(=O)CC(=O)OCC
x2 = 0
Conditions | mass density [kg/m3]
288.15 K | 813.77
298.15 K | 806.137
313.15 K | 794.488
328.15 K | 782.477

CCOC(=O)CC(=O)OCC [diethyl 1,3-propanedioate] + CC(C)CO
mass density [kg/m3]
Conditions | 288.15 K | 298.15 K | 313.15 K | 328.15 K
x1 = 0.1 | 843.381 | 835.034 | 822.221 | 808.976
x1 = 0.2 | 877.394 | 868.517 | 854.953 | 841.015
x1 = 0.3 | 908.051 | 898.746 | 884.583 | 870.102
x1 = 0.35 | 922.305 | 912.816 | 898.402 | 885.344
x1 = 0.3999 | 935.772 | 926.126 | 911.47 | 896.55
x1 = 0.4495 | 948.602 | 938.806 | 923.966 | 908.867
x1 = 0.5001 | 961.044 | 951.116 | 936.085 | 920.835
x1 = 0.6001 | 984.156 | 973.999 | 958.66 | 943.14
x1 = 0.6999 | 1005.33 | 995.001 | 979.414 | 963.679
x1 = 0.8003 | 1025.06 | 1014.57 | 998.792 | 982.885
x1 = 0.9 | 1043.28 | 1032.67 | 1016.71 | 1000.67
x1 = 1 | 1060.33 | 1049.6 | 1033.5 | 1017.34

CCOC(=O)CC(=O)OCC [diethyl 1,3-propanedioate] + CC(C)O
mass density [kg/m3]
Conditions | 288.15 K | 298.15 K | 313.15 K | 328.15 K
x1 = 0.1001 | 836.917 | 827.809 | 813.707 | 798.938
x1 = 0.2 | 877.015 | 867.404 | 852.617 | 837.294
x1 = 0.3 | 911.283 | 901.308 | 886.063 | 870.365
x1 = 0.3501 | 926.715 | 916.6 | 901.155 | 885.344
x1 = 0.4 | 940.924 | 930.696 | 915.119 | 899.194
x1 = 0.455 | 955.561 | 945.23 | 929.523 | 913.507
x1 = 0.4999 | 966.784 | 956.373 | 940.573 | 924.508
x1 = 0.5501 | 978.638 | 968.162 | 952.282 | 936.171
x1 = 0.5999 | 989.637 | 979.111 | 963.18 | 947.033
x1 = 0.6499 | 1000.13 | 989.567 | 973.566 | 957.417
x1 = 0.7001 | 1010.03 | 999.417 | 983.39 | 967.228
x1 = 0.8 | 1028.36 | 1017.69 | 1001.63 | 985.453
x1 = 0.8995 | 1044.94 | 1034.26 | 1018.18 | 1002.01
x1 = 1 | 1060.33 | 1049.6 | 1033.5 | 1017.34
